Data reported in ChEMBL document CHEMBL1201862, “PubChem BioAssay data set” (2004).
Each block holds one molecule with its values, some of them ahead of it. The source made the active and inactive calls.

Experiments:
[1] = molecular target: Voltage-gated inwardly rectifying potassium channel KCNH2 (Homo sapiens, UniProt Q12809); details: Potency;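 further: confirmatory quantitative high-throughput screen measuring inhibition of hERG channel activity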
[2] = molecular target: Glucose-6-phosphate 1-dehydrogenase (Homo sapiens, UniProt P11413); experiment: human G6PD enzyme inhibitors, dose response, selectivity assay for P. falciparum G6PD inhibitor project, biochemical, fluorescence (AID 504792); format: functional
Glucose-6-phosphate 1-dehydrogenase, sequence (P11413 whole entry): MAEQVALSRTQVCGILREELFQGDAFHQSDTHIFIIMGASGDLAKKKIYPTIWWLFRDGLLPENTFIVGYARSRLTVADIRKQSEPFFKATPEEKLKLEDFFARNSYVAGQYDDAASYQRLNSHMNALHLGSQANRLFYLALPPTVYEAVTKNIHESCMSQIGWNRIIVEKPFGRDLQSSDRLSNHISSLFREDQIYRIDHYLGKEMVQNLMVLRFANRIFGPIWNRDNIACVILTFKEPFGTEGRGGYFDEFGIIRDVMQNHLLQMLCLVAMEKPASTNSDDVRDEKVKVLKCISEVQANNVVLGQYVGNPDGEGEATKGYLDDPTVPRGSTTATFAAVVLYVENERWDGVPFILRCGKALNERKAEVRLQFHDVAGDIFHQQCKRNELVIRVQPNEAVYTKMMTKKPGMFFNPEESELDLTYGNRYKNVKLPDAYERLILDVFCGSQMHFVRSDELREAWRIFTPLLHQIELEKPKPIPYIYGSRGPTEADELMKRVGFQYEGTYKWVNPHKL

Mu-type opioid receptor = Mu-type opioid receptor (Homo sapiens, UniProt P35372); experiment: (§1) Counterscreen for agonists of heterodimerization of the mu 1 (OPRM1) and delta 1 (OPRD1) opioid receptors: Luminescence-based cell-based high throughput dose response assay to identify agonists of OPRM1 homodimerization.; format: functional
Mu-type opioid receptor, sequence (P35372 whole entry): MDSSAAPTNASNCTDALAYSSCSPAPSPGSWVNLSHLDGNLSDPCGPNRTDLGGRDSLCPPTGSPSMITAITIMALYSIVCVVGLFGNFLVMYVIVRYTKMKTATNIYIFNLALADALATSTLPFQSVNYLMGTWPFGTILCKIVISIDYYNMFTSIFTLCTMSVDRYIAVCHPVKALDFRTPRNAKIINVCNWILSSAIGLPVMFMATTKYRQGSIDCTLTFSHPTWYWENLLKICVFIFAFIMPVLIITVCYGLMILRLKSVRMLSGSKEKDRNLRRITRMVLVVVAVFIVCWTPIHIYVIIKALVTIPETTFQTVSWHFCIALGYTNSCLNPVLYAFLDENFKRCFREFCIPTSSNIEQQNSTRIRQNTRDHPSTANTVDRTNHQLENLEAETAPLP

[3] = molecular target: T1, Short transient receptor potential channel 4 (Mus musculus, UniProt Q9QUQ5); experiment: mouse TRPC4 channel activators, dose response, cell-based, HEK293 TRPC4/mu-opioid, Fluo-4 calcium (AID 434937); format: functional
T1 sequence (Q9QUQ5 whole entry): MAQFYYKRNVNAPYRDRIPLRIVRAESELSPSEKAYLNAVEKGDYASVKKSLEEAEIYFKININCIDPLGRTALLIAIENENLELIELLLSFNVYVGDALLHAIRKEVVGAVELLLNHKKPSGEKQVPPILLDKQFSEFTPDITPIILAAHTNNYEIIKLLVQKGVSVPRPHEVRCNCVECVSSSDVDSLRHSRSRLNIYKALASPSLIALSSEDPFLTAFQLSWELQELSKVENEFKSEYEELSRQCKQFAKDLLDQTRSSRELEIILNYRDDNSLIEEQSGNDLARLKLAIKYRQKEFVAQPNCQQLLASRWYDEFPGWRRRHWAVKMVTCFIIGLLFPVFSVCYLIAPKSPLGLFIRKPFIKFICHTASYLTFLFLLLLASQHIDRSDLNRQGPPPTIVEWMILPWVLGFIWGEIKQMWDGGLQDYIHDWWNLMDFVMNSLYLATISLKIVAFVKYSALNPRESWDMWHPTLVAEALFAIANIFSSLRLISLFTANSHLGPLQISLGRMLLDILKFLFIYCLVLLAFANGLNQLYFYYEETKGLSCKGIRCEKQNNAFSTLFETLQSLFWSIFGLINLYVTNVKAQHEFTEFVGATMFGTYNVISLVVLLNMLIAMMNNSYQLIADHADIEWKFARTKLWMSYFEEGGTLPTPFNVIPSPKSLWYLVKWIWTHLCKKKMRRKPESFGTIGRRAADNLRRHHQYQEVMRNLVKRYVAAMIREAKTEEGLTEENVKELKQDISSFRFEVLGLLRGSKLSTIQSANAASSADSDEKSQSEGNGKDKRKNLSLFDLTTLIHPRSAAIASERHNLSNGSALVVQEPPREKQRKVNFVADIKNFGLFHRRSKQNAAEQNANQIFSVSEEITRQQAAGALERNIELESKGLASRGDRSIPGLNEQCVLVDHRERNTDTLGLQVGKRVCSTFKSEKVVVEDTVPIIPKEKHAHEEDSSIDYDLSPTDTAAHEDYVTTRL

[4] = molecular target: Delta-type opioid receptor (Homo sapiens, UniProt P41143); experiment: as §1, with “of OPRD1” for “of OPRM1”, “homodimerization. [Related pubchem assays (depositor defined):AID504326, AID504355, AID504692, AID504904, AID504905]” for “homodimerization.”; format: functional
Delta-type opioid receptor, sequence (P41143 whole entry): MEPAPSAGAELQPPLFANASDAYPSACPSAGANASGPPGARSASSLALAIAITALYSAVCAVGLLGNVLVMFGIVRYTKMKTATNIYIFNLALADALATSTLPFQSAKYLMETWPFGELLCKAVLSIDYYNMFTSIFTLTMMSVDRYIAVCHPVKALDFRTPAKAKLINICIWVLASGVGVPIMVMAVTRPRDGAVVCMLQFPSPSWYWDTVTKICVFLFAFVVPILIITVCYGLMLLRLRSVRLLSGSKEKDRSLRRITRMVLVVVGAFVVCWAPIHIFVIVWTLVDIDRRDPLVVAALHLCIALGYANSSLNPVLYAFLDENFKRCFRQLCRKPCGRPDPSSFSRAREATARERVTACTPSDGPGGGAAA

[5] = molecular target: 5-hydroxytryptamine receptor 5A (Homo sapiens, UniProt P47898); experiment: Counterscreen for agonists of OPRM1-OPRD1 heterodimerization: luminescence-based cell-based high throughput dose response assay to identify agonists of 5-hydroxytryptamine (serotonin) 5A receptor (HTR5A). [Related pubchem assays (depositor defined):AID504326, AID504355, AID504692, AID504904, AID504905]; format: functional
5-hydroxytryptamine receptor 5A, sequence (P47898 whole entry): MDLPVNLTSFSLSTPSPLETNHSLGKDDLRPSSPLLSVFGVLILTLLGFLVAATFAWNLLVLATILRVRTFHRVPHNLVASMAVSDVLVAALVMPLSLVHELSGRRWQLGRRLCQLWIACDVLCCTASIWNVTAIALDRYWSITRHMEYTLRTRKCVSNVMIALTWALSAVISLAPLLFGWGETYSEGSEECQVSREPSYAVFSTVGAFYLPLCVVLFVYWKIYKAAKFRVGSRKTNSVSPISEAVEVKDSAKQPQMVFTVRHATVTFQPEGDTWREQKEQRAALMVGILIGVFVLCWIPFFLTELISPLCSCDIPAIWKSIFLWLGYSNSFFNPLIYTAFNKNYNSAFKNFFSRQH

[6] = molecular target: T2, Tyrosine-protein phosphatase non-receptor type 7 (Homo sapiens, UniProt P35236); format: functional
T2 sequence (P35236 whole entry): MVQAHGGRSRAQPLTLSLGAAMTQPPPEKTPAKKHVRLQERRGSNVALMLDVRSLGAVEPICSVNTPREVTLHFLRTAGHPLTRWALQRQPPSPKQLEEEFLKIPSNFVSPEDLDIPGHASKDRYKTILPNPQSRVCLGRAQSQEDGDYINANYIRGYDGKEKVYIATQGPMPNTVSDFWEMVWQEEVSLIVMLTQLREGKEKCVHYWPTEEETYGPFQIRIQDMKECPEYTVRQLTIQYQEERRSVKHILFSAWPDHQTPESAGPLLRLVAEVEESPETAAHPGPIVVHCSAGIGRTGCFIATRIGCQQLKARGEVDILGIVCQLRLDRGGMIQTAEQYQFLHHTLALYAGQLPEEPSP

[7] = molecular target: T3, Dual specificity protein phosphatase 6 (Rattus norvegicus, UniProt Q64346); format: functional
T3 sequence (Q64346 whole entry): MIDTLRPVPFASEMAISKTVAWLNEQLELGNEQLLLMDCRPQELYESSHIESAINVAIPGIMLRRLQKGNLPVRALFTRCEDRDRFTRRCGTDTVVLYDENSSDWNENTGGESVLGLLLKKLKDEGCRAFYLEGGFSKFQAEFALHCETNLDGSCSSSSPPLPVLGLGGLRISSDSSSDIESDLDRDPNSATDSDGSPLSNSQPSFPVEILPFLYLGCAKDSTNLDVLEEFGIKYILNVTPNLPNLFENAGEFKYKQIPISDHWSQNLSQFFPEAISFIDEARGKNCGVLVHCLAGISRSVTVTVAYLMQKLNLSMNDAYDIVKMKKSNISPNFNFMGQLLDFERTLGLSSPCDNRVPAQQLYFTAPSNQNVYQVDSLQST

[8] = molecular target: T3, Dual specificity protein phosphatase 6
[9] = molecular target: Glyceraldehyde-3-phosphate dehydrogenase (Homo sapiens, UniProt P04406)
Glyceraldehyde-3-phosphate dehydrogenase, sequence (P04406 whole entry): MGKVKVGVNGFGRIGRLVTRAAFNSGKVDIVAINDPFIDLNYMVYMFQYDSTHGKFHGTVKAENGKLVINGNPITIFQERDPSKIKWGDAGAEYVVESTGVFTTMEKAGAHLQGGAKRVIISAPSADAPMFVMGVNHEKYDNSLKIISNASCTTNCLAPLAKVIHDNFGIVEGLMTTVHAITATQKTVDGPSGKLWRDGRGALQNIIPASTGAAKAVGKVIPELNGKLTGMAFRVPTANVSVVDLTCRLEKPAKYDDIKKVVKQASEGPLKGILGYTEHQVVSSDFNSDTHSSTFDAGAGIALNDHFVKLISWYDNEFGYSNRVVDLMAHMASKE

Voltage-gated inwardly rectifying potassium channel KCNH2, sequence (Q12809 whole entry): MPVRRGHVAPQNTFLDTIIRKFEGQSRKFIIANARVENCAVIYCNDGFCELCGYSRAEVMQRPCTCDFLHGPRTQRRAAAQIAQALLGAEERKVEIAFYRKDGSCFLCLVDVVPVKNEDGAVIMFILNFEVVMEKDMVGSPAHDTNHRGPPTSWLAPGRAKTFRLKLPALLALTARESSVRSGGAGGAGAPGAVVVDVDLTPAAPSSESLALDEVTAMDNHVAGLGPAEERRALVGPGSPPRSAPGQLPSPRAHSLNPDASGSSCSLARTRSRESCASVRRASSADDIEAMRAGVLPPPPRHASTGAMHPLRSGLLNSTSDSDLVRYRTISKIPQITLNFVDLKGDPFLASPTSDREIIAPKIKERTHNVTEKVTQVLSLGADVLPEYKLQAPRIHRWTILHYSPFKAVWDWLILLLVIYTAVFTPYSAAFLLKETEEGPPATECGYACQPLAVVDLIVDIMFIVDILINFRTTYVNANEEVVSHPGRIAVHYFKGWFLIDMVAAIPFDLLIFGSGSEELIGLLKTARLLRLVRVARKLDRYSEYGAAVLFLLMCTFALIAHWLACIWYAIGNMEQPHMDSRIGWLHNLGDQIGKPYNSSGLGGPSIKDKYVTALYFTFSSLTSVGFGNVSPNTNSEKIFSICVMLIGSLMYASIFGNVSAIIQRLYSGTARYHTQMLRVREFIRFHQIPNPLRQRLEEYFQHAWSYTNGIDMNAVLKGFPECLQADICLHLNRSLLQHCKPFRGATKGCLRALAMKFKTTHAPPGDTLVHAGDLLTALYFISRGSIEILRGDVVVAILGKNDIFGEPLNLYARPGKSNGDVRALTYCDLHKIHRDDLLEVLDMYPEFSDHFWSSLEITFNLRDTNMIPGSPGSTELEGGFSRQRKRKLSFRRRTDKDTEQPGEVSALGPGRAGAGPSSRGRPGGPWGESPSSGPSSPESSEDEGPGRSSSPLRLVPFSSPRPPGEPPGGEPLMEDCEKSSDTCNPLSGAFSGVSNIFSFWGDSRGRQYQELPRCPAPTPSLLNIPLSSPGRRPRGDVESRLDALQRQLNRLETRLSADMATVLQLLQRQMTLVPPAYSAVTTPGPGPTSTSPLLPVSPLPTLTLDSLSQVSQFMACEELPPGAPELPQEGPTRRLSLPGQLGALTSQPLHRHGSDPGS

Structure (SMILES): Cc1cccc(C)c1OCC(N)C(C)C (stereo unspecified)
- AC50 [1]: 35.5 µM (inconclusive)

Structure (SMILES): CCOc1ccc(N(CC(=O)N/N=C/c2cc([N+](=O)[O-])ccc2Cl)S(C)(=O)=O)cc1
- IC50 [2]: > 80 µM (inactive)

- EC50 (Mu-type opioid receptor): > 92.5 µM (inactive)
- EC50 [3]: 237 nM (active)
- EC50 [4]: > 92.5 µM (inactive)
- EC50 [5]: > 92.5 µM (inactive)
Structure (SMILES): COc1ccc(C(CNC(=O)CSc2ccccc2C)N(C)C)cc1 (stereo unspecified)

- IC50 [6]: > 100 µM (not active)
- IC50 [7]: > 100 µM (inactive)
- IC50 [8]: > 100 µM (inactive)
- IC50 [9]: > 100 µM (not active)
Structure (SMILES): Cn1c(=O)n(-c2ccccc2)c(=O)n([C@@H](Cc2ccccc2)C(N)=O)c1=O

Structure (SMILES): CCCCNCC
- AC50 [1]: 31.6 µM (inconclusive)
